Among the data in patent US20250270227A1, “CAMPTOTHECIN DERIVATIVE, AND PHARMACEUTICAL COMPOSITION AND USE THEREOF” (SIMCERE ZAIMING PHARMACEUTICAL CO., LTD., priority 2021, published 2025) are IC50 values, retold here.

Structures are written as SMILES. Like-named read-outs stand apart in the source and are kept apart here.

What all share (format): cell-based
For assay [1], the system named is human breast cancer cell line MDA-MB-231. Description: Test 2 of anti-proliferative activity against tumor cells (Cell-Titer Glo). The protocol: (§1) Cell culture: SK-OV-3 cells were cultured in McCoy's 5a medium containing 10% fetal bovine serum+1% penicillin-streptomycin, PA-1 cells were cultured in MEM medium containing 10% fetal bovine serum+1% MEM NEAA+1% sodium pyruvate+1% penicillin-streptomycin, NCI-H82 cells and MDA-MB-231 cells were cultured in 1640 medium containing 10% fetal bovine serum+1% penicillin-streptomycin, A549 cells were cultured in DMEM medium containing 10% fetal bovine serum+1% penicillin-streptomycin, all under conditions of 37° C. and 5% CO2. Cells in logarithmic growth phase were suitable for the experiment.
(§2) Detection of cell proliferation activity: The inhibitory activity of the compounds on the proliferation of the five cell lines SK-OV-3, PA-1, NCI-H82, MDA-MB-231 and A549 was detected using Cell-Titer Glo reagent. SK-OV-3 cell (1000 cells per well), PA-1 cells (800 cells per well), NCI-H82 cells (5000 cells per well), MDA-MB-231 cells (3000 cells per well) and A549 cells (400 cells per well) were seeded in 96-well plates and cultured at 37° C. and 5% CO2 for 24 h. The compound to be tested was dissolved in DMSO to a concentration of 1 mM, then subjected to gradient dilution with DMSO and corresponding medium, and transferred to 96-well cell plates to a final concentration of 300 nM (initial concentration), with 3-fold dilution and a total of 9 concentration points. The cells were cultured at 37° C. and 5% CO2 for additional 5 days. The cell viability was detected by adding Cell-Titer Glo reagent.
(§3) Additionally, a negative control group and a positive control group were provided as Bottom and Top, respectively. In the negative control group, the cells were not added, only the same volume of medium was added, and other operations were consistent with those in the experimental group; in the positive control group, the test compound was not added, only the same volume of DMSO was added, and other operations were consistent with those in the experimental group.
(§4) Data analysis: The % compound inhibition was calculated, and fitting was performed to obtain IC50 of the compound.
(§5) % Compound inhibition=1−100%*(Signal−Bottom)/(Top−Bottom).
(§6) Signal represents the signal value of the experimental group, Bottom represents the average signal value of the negative control group, and Top represents the average signal value of the positive control group.

The test system of assay [2] is Human ovarian cancer cell line SK-OV-3. Described as above. The protocol: as §1, §2, §3, §4, §5, §6
The subject of assay [3] is human small cell lung cancer cell line NCI-H82. The description is as above. The conditions noted are these: Homo sapiens, NCI-H82, 120 h, read-out: NCI-H82 Anti-proliferative activity IC50 (nM), NCI-H82 cells, 5 days, Cell-Titer Glo. The protocol: as §1, §2, §3, §4, §5, §6
Assay [4] relates to human non-small cell lung cancer cell line A549. Described as above. The protocol: as §1, §2, §3, §4, §5, §6
Assay [5] relates to human ovarian cancer cell line PA-1. Described as above. As to the method:
as §1, §2, §3, §4, §5, §6

The subject of assay [6] is human ovarian cancer cell line OVCAR3. The experiment in a line: Test 1 of anti-proliferative activity against tumor cells (Cell-Titer Glo). The method in brief: (§7)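 HCT116, SKBR3 and OVCAR3 cells seeded 24 h, then treated with 9-point 3-fold dilutions (final 0-300 nM); HCT116 incubated 3 days, SKBR3 and OVCAR3 5 days at 37° C, 5% CO2. Viability by Cell-Titer Glo luminescence, inhibition normalised to DMSO and no-cell wells, IC50 fitted.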

The test system of assay [7] is Human colorectal cancer cell line HCT116. The description is as above. The method in brief: as §7
Assay [8] relates to human breast cancer cell line SKBR3. Described as above. Particulars: SKBR3 cells, cultured 5 days with compound, Cell-Titer Glo; read-out: SKBR3 Anti-proliferative activity IC50. An outline of the steps:
as §7

One may read the IC50 as the concentration that inhibits the measured activity by half. For `CC[C@@]1(O)C(=O)OCc2c1cc1n(c2=O)Cc2c-1nc1cc3c(c(Cl)c1c2CNC(=O)CO)OCO3` [Compound 31, (S)-N-((15-chloro-7-ethyl-7-hydroxy-8,11-dioxo-7,8,11,13-tetrahydro-10H-[1,3]dioxolo[4,5-g]pyrano[3′,4′:6,7]indolizino[1,2-b]quinolin-14-yl)methyl)-2-hydroxyacetamide], the IC50 is 13.5 nM in assay [1] (Homo sapiens, MDA-MB-231, 120 h, read-out: MDA-MB-231 Anti-proliferative activity IC50 (nM)); 12.3 nM in assay [2] (Homo sapiens, SK-OV-3, 120 h, read-out: SK-OV-3 Anti-proliferative activity IC50 (nM)); 4 nM in assay [3]; 15.9 nM in assay [4] (Homo sapiens, A549, 120 h, read-out: A549 Anti-proliferative activity IC50 (nM), A549 cells, 5 days, Cell-Titer Glo); 1.7 nM in assay [5] (Homo sapiens, PA-1, 120 h, read-out: PA-1 Anti-proliferative activity IC50 (nM), PA-1 cells, 5 days, Cell-Titer Glo); 0.2 nM in assay [6] (Homo sapiens, OVCAR-3, 120 h, read-out: OVCAR3 Anti-proliferative activity IC50 (nM)). Also, in assay [7] (Homo sapiens, HCT-116, 72 h, read-out: HCT116 Anti-proliferative activity IC50 (nM), HCT116 cells, cultured 3 days with compound, Cell-Titer Glo), the IC50 worked out at 1.2 nM.

For the compound `[2H]C1([2H])Oc2cc3nc4c(c(CNC(=O)[C@@H](O)C5CC5)c3cc2O1)Cn1c-4cc2c(c1=O)COC(=O)[C@]2(O)CC` [Compound 39-P2, 2-cyclopropyl-N-(((S)-7-ethyl-7-hydroxy-8,11-dioxo-7,8,11,13-tetrahydro-10H-[1,3]dioxolo[4,5-g]pyrano[3′,4′:6,7]indolizino[1,2-b]quinolin-14-yl-2,2-d2)methyl)-2-hydroxyacetamide], the 50% inhibitory concentration (IC50) came out at 23.2 nM in assay [1] (MDA-MB-231 cells, 5 days, Cell-Titer Glo, read-out: MDA-MB-231 Anti-proliferative activity IC50); 2.1 nM in assay [2] (SK-OV-3 cells, 5 days, Cell-Titer Glo, read-out: SK-OV-3 Anti-proliferative activity IC50); 15.7 nM in assay [4] (A549 cells, 5 days, Cell-Titer Glo, read-out: A549 Anti-proliferative activity IC50); 1.2 nM in assay [5] (PA-1 cells, 5 days, Cell-Titer Glo, read-out: PA-1 Anti-proliferative activity IC50); 2.9 nM in assay [8]; 1 nM in assay [6] (OVCAR3 cells, cultured 5 days with compound, Cell-Titer Glo, read-out: OVCAR3 Anti-proliferative activity IC50). For the same compound, in assay [7] (HCT116 cells, cultured 3 days with compound, Cell-Titer Glo, read-out: HCT116 Anti-proliferative activity IC50), the IC50 came to 6.5 nM.
